From patent US11691962B2 (eXIthera Pharmaceuticals, Inc., priority 2018, dated 2023) come the findings set out here.

One may read the Papp A→B as the apparent permeability from the apical to the basolateral side of a cell layer. What is called Papp B→A is the apparent permeability from the basolateral to the apical side of a cell layer. What is called IC50 is the concentration that inhibits the measured activity by half. For orientation: solubility means the dissolved amount per volume that the medium holds. A low value points to a poorly soluble substance.

In one data set the test system is Trypsin. The experiment in a line: Dose response assay for protease inhibitors: trypsin. In kind it is biochemical. To be noted: selectivity, trypsin over Factor XIa. In short, it runs like this: (§1)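 Fluorogenic AMC-peptide cleavage in 20 mM Hepes pH 7.4, 150 mM NaCl, 0.02% Tween 20; 100 μM stock substrate dilution (Glp-Pro-Arg-AMC for thrombin/trypsin; Pro-Phe-Arg-AMC or Boc-Leu-Gly-Arg-AMC for Factor Xa). Enzyme diluted to 0.5 nM, added last to two-fold compound series; kinetic read at 30° C, 30 min (Factor Xa 60 min); IC50 fitted.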

The target in another data set is Factor Xa (Homo sapiens (Human), UniProt P00742). The experiment in a line: Dose response assay for protease inhibitors: Factor Xa. In kind it is biochemical. The conditions noted are these: selectivity, Factor Xa over Factor XIa. The method in brief:
as §1

Data set [1] in a line: Caco-2 cell permeability assay. In kind it is in vitro ADME, human. The conditions noted are these: human, 37° C.; for Papp A→B at 60 min, 10 μM: Caco-2, apical to basolateral; for Papp B→A at 40 min, 10 μM: Caco-2, basolateral to apical. The method, then: (§2) The following procedure was used to determine the ability of a test compound to cross Caco-2 cells (human intestinal epithelial cells derived from a colorectal adenocarcinoma). The cells were seeded at 1×10^5 cells/cm^2 in 96-well Multiscreen™ plates (Millipore). Permeability assays were performed with the cells at days 21-25 post-seeding. Cells are typically used for 15 consecutive passages in culture.
(§3) This assay can be performed in either the apical to basolateral (A-B) or basolateral to apical (B-A) direction. The test compound was prepared at 10 μM in HBSS-MES (pH 6.5) or HBSS-HEPES (pH 7.4) with a final DMSO concentration of 1%. The working solution was then centrifuged and the supernatant added to the donor side. The assay plate was incubated at 37° C. with gentle shaking for 60 min or 40 min for the A-B or B-A assay, respectively. Samples were aliquoted from the donor side at time zero and the end point, and from the receiver side at the end point.
(§4) Reference compounds, propranolol (highly permeable), labetalol (moderately permeable), ranitidine (poorly permeable), and colchicine (P-glycoprotein substrate) were included in each assay.
(§5) Samples are analyzed by HPLC-MS/MS using selected reaction monitoring. The HPLC system consists of a binary LC pump with autosampler, a C-18 column, and a gradient.
(§6) The apparent permeability coefficient (Papp) of the test compound (Equation 2) and its recovery (Equation 3) are calculated as follows:
(§7) [formula] wherein A is the surface area of the cell monolayer (0.11 cm^2), C is concentration of the test compound expressed as peak area, D denotes donor, and R is receiver. “0”, “mid,” and “end” denote time at zero, mid-point, and end of the incubation, respectively. Δt is the incubation time. V is the volume of the donor or receiver.
(§8) This is most likely due to non-specific binding or degradation.
For orientation: Passage across Caco-2 layers is used to estimate intestinal permeability.

In the next data set the target is Thrombin (Homo sapiens (Human), UniProt P00734). In words: Dose response assay for protease inhibitors: thrombin. The class given is biochemical. To be noted: selectivity, thrombin over Factor XIa. In short, it runs like this: as §1
The target of the next data set is Factor XIa (Homo sapiens (Human), UniProt P03951). In words: Factor XIa enzyme inhibition assay (dose response, fluorogenic AMC substrate). The class given is biochemical. To be noted: read-out: hFXIa IC50. In short, it runs like this: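 Human FXIa at 0.25 nM final with 50 μM final PyroGlu-Pro-Arg-AMC in 20 mM Hepes pH 7.4, 150 mM NaCl, 0.02% Tween 20. Two-fold serial compound dilutions; fluorescence read every minute for 30 min at 30° C. IC50 from a four-parameter Hill fit.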
Sequence of Factor XIa (P03951 388-625): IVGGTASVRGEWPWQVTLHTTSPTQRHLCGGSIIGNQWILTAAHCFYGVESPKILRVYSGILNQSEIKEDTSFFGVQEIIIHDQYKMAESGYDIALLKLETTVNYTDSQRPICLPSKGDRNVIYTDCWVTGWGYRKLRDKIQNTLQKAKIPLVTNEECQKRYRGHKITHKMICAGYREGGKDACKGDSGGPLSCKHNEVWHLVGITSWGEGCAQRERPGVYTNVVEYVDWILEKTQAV
Sequence of Factor XIa (P03951 19-387 partner): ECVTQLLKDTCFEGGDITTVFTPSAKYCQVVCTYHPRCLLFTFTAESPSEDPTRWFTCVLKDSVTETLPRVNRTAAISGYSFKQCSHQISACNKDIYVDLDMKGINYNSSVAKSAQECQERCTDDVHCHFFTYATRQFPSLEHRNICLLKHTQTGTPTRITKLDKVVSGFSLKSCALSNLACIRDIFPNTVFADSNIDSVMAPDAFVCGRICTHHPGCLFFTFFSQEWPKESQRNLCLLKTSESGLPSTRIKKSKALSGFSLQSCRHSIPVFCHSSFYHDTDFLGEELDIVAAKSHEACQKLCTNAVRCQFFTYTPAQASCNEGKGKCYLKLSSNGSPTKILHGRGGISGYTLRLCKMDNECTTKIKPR

A short description of data set [2]: Metabolic stability in dog hepatocytes. The class given is in vitro ADME. To be noted: pooled cryopreserved hepatocytes; beagle dog hepatocytes, 2 μM compound; read-out: Dog Hepatocyte Stability (t1/2). As for the experimental part:
The following procedure was used to determine the stability of test compounds in beagle dog hepatocytes in a 96-well plate format. The test compounds, including the controls, imipramine and 7-ethoxycoumarin, were dissolved at 10 mM in DMSO, followed by further 5-fold dilution with DMSO to 2 mM. Pooled cryopreserved beagle dog hepatocytes were thawed and transferred into complete medium. Cells were gently centrifuged (700 rpm for 5 min) and the pellet rinsed with KHB (Krebs Henseleit buffer). Cells were resuspended, counted using Trypan blue, and adjusted to 1 million cells/mL in KHB buffer. The 2 mM compound stock solutions were diluted 10-fold with acetonitrile, followed by a further 50-fold dilution with KHB buffer. 200 μL of these compound solutions were transferred to 96-well polypropylene assay plates and an equal volume of the hepatocyte solution was added and mixed to initiate the reaction (final assay concentrations were 2 μM compound and 500,000 cells/mL). Assay plates were incubated at 37° C. in 5% CO2 with gentle agitation. 50 μL aliquots were removed at multiple time points out to 180 minutes and quenched with 6 volumes of cold acetonitrile (containing 250 ng/mL of carbutamide and chrysin as internal standards) to terminate the reaction and precipitate protein. Quenched samples were maintained on ice. The quenched samples were centrifuged at 2000×g (3100 rpm) for 10 minutes at 4° C. 50 μL aliquots of the supernatants were removed and diluted with 100 μL Milli-Q water to reduce the % organic content prior to bioanalysis by LC-MS/MS. Peak areas corresponding to the test compound were recorded. The compound remaining was calculated by comparing the peak area at each time point to time zero. Data were analyzed and results were calculated using Microsoft Excel 2010.

A short description of data set [3]: Aqueous solubility in PBS by HPLC-UV/VIS. The class given is physicochemical. The conditions noted are these: PBS pH 7.4, 2% DMSO, 24 h at room temperature. As for the experimental part:
The following procedure was used to determine the aqueous solubility of a test compound in phosphate buffered saline (PBS-NaCl 137 mM, KCl 2.7 mM, Na2HPO4 8.1 mM, KH2PO4 1.5 mM, pH 7.4) in 96-well plate format by HPLC-UV/VIS analysis. The test compound was prepared at 200 μM in PBS from a 10 mM DMSO stock solution. The final DMSO concentration was 2%. The PBS buffer samples were mixed thoroughly followed by incubation at room temperature for 24 h. At the end of the incubation, the PBS buffer samples were centrifuged and supernatants analyzed by HPLC. The aqueous solubility (μM) of the test compound in PBS was determined by comparing the peak area of the principal peak in the calibration standard (200 μM) with the peak area of the corresponding peak in each of the PBS samples. The range of the assay was approximately 0.5 μM to 200 μM. The reference compounds used in each assay were metoprolol, rifampicin, ketoconazole, phenytoin, haloperidol, simvastatin, diethylstilbestrol, and tamoxifen ranking from fully soluble (200 μM) to poorly soluble (<1 μM).

A short description of data set [4]: Plasma protein binding by equilibrium dialysis. To be noted: both sexes, pH 7.4, pooled human plasma, 4 hours at 37° C., read-out: PPB (%). In kind it is in vitro ADME. As for the experimental part: (§9) The following procedure was used to determine the plasma protein binding of a test compound in pooled plasma from human (mixed gender) via equilibrium dialysis in a 96-well plate format. The dialysate compartment was loaded with phosphate-buffered saline (pH 7.4) and the sample side was loaded with plasma spiked with the test compound at a concentration of 10 μM. After loading, samples were covered and incubated for 4 hours at 37° C. After incubation, each compartment was sampled, diluted with acetonitrile/buffer and centrifuged. The supernatants were analyzed by HPLC-MS/MS. The analyte peak areas obtained from HPLC-MS/MS analysis of each sample were used to calculate protein binding according to the following equation (Equation 4):
(§10) [formula] where: AREAp=Peak area of analyte in protein matrix; AREAb=Peak area of analyte in buffer.
(§11) The amount measured in the plasma compartment included both free and bound drug, while that on the buffer side represented free drug only; the differences were used to calculate the percentage plasma protein bound. Three reference compounds were tested in each assay: acebutolol, quinidine and warfarin.
A general note: In equilibrium dialysis free small molecules cross a membrane that holds back macromolecules.

Another data set has as its system human plasma protein. The experiment in a line: Plasma protein binding by equilibrium dialysis. To be noted: pooled human plasma, 10 μM, 4 hours at 37° C. In kind it is in vitro ADME. The method, then:
as §9, §10, §11

The test system of another data set is Caco-2 cells. The experiment in a line: Caco-2 cell permeability assay. The conditions noted are these: Papp, 10 μM, 37° C. In kind it is in vitro ADME, human. The method, then: as §2, §3, §4, §5, §6, §7, §8

Sequence of Factor Xa (P00742 235-488): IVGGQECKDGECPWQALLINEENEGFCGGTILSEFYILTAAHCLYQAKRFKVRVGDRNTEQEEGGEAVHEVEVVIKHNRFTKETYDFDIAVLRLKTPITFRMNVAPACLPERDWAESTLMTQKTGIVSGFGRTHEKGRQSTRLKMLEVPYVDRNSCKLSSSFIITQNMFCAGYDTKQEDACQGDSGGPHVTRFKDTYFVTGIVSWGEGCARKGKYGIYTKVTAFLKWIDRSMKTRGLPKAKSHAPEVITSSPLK
Sequence of Factor Xa (P00742 41-179 partner): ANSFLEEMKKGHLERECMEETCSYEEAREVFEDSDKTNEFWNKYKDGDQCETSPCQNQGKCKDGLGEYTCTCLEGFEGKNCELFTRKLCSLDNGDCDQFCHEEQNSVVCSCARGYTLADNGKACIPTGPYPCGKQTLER

Turning to `CC[C@@H](NC(=O)N1C(=O)[C@H](Cc2ccnc(N)c2)[C@H]1C(=O)N(C)c1ccsc1)c1ccccc1` [Compound 1-9, (2S,3R)-3-((2-aminopyridin-4-yl)methyl)-N2-(thiophen-3-yl)-N1-((R)-1-phenylpropyl)-N2-methyl-4-oxoazetidine-1,2-dicarboxamide], the “Ratio: Trypsin/FXIa” value with Trypsin was “G (“G” indicates 1-100)”. Besides, on Factor Xa, the “Ratio: FXa/FXIa” value was “H (“H” indicates 101-1000)”. In data set [1], this molecule had a Papp A→B at 60 min, 10 μM of 110 to 300 nm/s and a Papp B→A at 40 min, 10 μM of 110 to 300 nm/s. At Thrombin, the “Ratio: Thrombin/FXIa” value is recorded as “H (“H” indicates 101-1000)”. The IC50 at Factor XIa was below 0.01 µM.
For the molecule `CC[C@@H](NC(=O)N1C(=O)[C@H](Cc2ccnc(N)c2)[C@H]1C(=O)N(C)c1cnn(C)c1)c1cccc(Cl)c1` [Compound 1-11, (2S,3R)-3-((2-aminopyridin-4-yl)methyl)-N2-(1-methyl-1H-pyrazol-4-yl)-N1-((R)-1-(3-chlorophenyl)propyl)-N2-methyl-4-oxoazetidine-1,2-dicarboxamide], the “Ratio: Trypsin/FXIa” value in the data set on Trypsin is listed as “G (“G” indicates 1-100)”. Also, on Factor Xa, the “Ratio: FXa/FXIa” value is listed as “H (“H” indicates 101-1000)”. In data set [1], this molecule had a Papp A→B at 60 min, 10 μM below 100 nm/s and a Papp B→A at 40 min, 10 μM of 110 to 300 nm/s. On Thrombin, the “Ratio: Thrombin/FXIa” value is reported as “H (“H” indicates 101-1000)”. For the same molecule, the IC50 on Factor XIa is below 0.01 µM.
Regarding `CC[C@@H](NC(=O)N1C(=O)[C@H](Cc2cc(C)nc(N)c2)[C@H]1C(=O)N(C)c1ccn(C)n1)c1ccccc1` [Compound 1-48, (2S,3R)-3-((2-amino-6-methylpyridin-4-yl)methyl)-N2-(1-methyl-1H-pyrazol-3-yl)-N1-((R)-1-phenylpropyl)-N2-methyl-4-oxoazetidine-1,2-dicarboxamide], in the data set on Trypsin, the “Ratio: Trypsin/FXIa” value is recorded as “G (“G” indicates 1-100)”. The half-life at 2 μM in data set [2] is above 4 h. The “Ratio: FXa/FXIa” value on Factor Xa is “I (“I” indicates > 500)”. Also, the “Ratio: Thrombin/FXIa” value at Thrombin is “H (“H” indicates 101-1000)”. At Factor XIa, the IC50 is below 0.01 µM.
Take `CC[C@@H](NC(=O)N1C(=O)[C@H](Cc2ccnc(N)c2)[C@H]1C(=O)N(C)c1nccn1C)c1cc(F)ccc1F` [Compound 1-84, (2S,3R)-3-((2-aminopyridin-4-yl)methyl)-N2-(1-methyl-1H-imidazol-2-yl)-N1-((R)-1-(2,5-difluorophenyl)propyl)-N2-methyl-4-oxoazetidine-1,2-dicarboxamide]: the “Ratio: Trypsin/FXIa” value with Trypsin is listed as “G (“G” indicates 1-100)”. The same molecule returned a solubility at 24 h in data set [3] (phosphate buffered saline, aqueous buffer, kinetic from dmso stock) above 100 µM. The fraction unbound at 4 h, 10 μM in data set [4] fell in the range of 0.1 to 0.5. Also, the “Ratio: FXa/FXIa” value on Factor Xa was “I (“I” indicates > 500)”. For the same molecule, in data set [1], the Papp A→B at 60 min, 10 μM is below 100 nm/s and the Papp B→A at 40 min, 10 μM was 110 to 300 nm/s. The “Ratio: Thrombin/FXIa” value at Thrombin is reported as “H (“H” indicates 101-1000)”. Also, the IC50 at Factor XIa was below 0.01 µM.
As to “(2S,3R)-3-((2-aminopyridin-4-yl)methyl)-N2-(1-methyl-1H-imidazol-2-yl)-N1-((R)-1-(3-fluorophenyl)propyl)-N2-methyl-4-oxoazetidine-1,2-dicarboxamide [Compound 1-79]”, the “Ratio: Trypsin/FXIa” value with Trypsin is recorded as “G (“G” indicates 1-100)”. In addition, in [3], the “Aqueous Solubility (uM, in PBS)” value is “W (“W” indicates > 100 μM)”. For the same molecule, in the data set with human plasma protein, the “PPB (%)” value is on record as “Z (“Z” indicates 50-90%)”. At Factor Xa, the “Ratio: FXa/FXIa” value was “I (“I” indicates > 500)”. The “Caco-2 Permeability (A-B)” value with Caco-2 cells (apical to basolateral, 60 min) was “P (“P” indicates < 10 × 10^−6 cm/s)”. For the same molecule, the “Caco-2 Permeability (B-A)” value in the data set with Caco-2 cells (basolateral to apical, 40 min) is reported as “Q (“Q” indicates 11-30 × 10^−6 cm/s)”. Also, on Thrombin, the “Ratio: Thrombin/FXIa” value is “H (“H” indicates 101-1000)”. Moreover, the IC50 at Factor XIa is below 0.01 µM.
